# From paper PMC12775434, “Ultra-large virtual screening unveils potent agonists of the neuromodulatory orphan receptor GPR139” (Nature Communications, 2025)
# Several values for one entry are separate records, joined by “and”; a condition that tells them apart may be missing. Equal entries are not always repeated. Where two headings read alike, the source gives them in different places.
# Assays:
# Type in all cases: cell-based
# GPR139 [1] = target: T1, GPR139 (Homo sapiens, UniProt Q6DWJ6); assay: Ca2+ mobilization assay, agonist mode, stable GPR139-CHOk1 cell line; conditions: for Emax: normalized to Lundbeck Cmp 1a, read-out: Emax (%) Ca2+
# T1 sequence (Q6DWJ6 1-353): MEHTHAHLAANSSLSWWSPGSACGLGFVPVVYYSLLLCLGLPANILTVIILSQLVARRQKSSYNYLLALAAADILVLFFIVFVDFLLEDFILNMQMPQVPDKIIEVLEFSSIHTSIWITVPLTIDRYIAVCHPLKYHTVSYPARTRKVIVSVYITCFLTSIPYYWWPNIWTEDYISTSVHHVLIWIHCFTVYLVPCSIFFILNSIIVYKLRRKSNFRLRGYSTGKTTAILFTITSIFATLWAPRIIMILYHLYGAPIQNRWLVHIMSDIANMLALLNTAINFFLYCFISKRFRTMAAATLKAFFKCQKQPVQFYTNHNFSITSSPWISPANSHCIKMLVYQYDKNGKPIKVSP
# Outline: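 Agonist activity of compounds is assessed in stably transfected CHO-K1 cells using the calcium dye Fluo-4 at 37 °C in HEPES-buffered HBSS (pH 7.4). Efficacy is expressed relative to the reference agonist Lundbeck Cmp 1a, set as 100%.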
# GPR139 [2] = target: T1, GPR139; assay: Ca2+ mobilization assay, antagonist mode (EC80 800 nM Lundbeck Cmp 1a after 20 min preincubation), GPR139-CHOk1; conditions: individual replicates (Supplementary Figure 4)
# Outline: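 Antagonist mode: 800 nM (EC80) reference agonist Lundbeck Cmp 1a added following 20 min pre-incubation with 10 µM compound. GPR139-CHOk1 cells, Fluo-4 dye, probenecid-containing HEPES buffer pH 7.4; intracellular Ca2+ measured at 37 °C (ex 485, em 525 nm).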
# [3] = target: T2, human muscarinic acetylcholine M1 receptor (M1R) (Homo sapiens, UniProt P11229); assay: Ca2+ mobilization counter-screen in M1R-CHOk1 cells; conditions: individual replicates (Supplementary Figure 5)
# T2 sequence (P11229 1-460): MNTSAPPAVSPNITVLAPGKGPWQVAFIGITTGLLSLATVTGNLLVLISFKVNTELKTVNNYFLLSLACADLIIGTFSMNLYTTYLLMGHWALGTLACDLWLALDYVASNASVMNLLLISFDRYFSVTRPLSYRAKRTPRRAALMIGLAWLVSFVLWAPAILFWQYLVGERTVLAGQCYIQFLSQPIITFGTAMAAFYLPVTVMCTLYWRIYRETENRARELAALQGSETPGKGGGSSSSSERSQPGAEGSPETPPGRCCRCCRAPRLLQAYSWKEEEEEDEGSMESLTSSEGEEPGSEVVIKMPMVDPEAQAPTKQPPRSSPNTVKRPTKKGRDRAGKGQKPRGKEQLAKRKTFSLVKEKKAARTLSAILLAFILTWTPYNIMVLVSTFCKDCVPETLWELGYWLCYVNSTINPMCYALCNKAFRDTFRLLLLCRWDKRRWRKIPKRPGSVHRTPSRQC
# Experimental: Primary screening and pharmacological characterization of compounds were performed using a CHO-K1 cell line that stably expresses human GPR139 (GPR139-CHOk1). The GPR139-CHOk1 cell line was kindly provided by H. Lundbeck A/S, Denmark[24]. GPR139-CHOk1 cells were grown in Ham’s F-12 Kaighn’s Modification Medium (ThermoFisher #21127030) supplemented with 10% dialyzed fetal bovine serum (US origin, ThermoFisher #26400044), 100 units/mL Penicillin-Streptomycin (ThermoFisher #15140122), and 1 mg/mL Geneticin (ThermoFisher #11811031). […] M1R-CHOk1 cells were purchased from The Missouri S&T cDNA Resource Center (#CEM100TN00). M1R-CHOk1 cells were grown in Ham’s F12 Medium (ThermoFisher #21765029) supplemented with 10% fetal bovine serum (Brazilian origin, ThermoFisher #10270106), 100 units/mL Penicillin-Streptomycin, and 0.25 mg/mL Geneticin. HEK293A cells transiently transfected with GPR139 were used for additional pharmacological assessment of signaling pathways activated by GPR139. HEK239A cells were generously provided by Dr. Asuka Inoue, Tohoku University, Japan. HEK293A cells were grown in Dulbecco’s Modified Eagle Medium (ThermoFisher #31966047) supplemented with 10% dialyzed fetal bovine serum and 100 units/mL Penicillin-Streptomycin. Cell lines were maintained at 37 °C in humidified incubator equilibrated with 5% CO2.
# 30,000 GPR139- or M1R-CHOk1 cells/well were seeded in black clear bottom tissue culture treated 96-well plates (Greiner #655090) and grown for 20–24 h. Cells were washed with HEPES buffer (Hank’s Balanced Salt Solution (HBBS) supplemented with 20 mM HEPES, 1 mM MgCl2, and 1 mM CaCl2; pH 7.4). Cells were loaded with 50 µL of 2 µM Fluo-4 AM dye (ThermoFisher #F14202) in HEPES buffer supplemented with 2.5 mM probenecid and 0.01% Pluronic F-68 (ThermoFisher #24040032) for 1 h at 37 °C. Cells were washed with HEPES buffer. 50 µL HEPES buffer supplemented with 2.5 mM probenecid was added, and the cells were incubated for 10 min at 37 °C before measurement. 50 µL test compounds diluted in HEPES buffer from DMSO stocks (final DMSO concentration of maximally 0.3%) were added automatically after baseline measurements. The intracellular calcium mobilization was measured on a FlexStation 3 Multimode Microplate Reader (Molecular Devices) at 37 °C with filters for excitation of 485 nm and emission of 525 nm.
# [4] = Agonist mode, individual replicates (Supplementary Figure 4)
# [5] = GPR139-CHOk1, read-out: EC50, Ca2+ mobilization
# [6] = Supplementary Table 2, mean ± SEM
# [7] = log [Compound] M = -4.5, individual replicate columns
# [8] = log [Compound] M = -5.0, individual replicate columns
# [9] = log [Compound] M = -5.5, individual replicate columns
# [10] = log [Compound] M = -6.0, individual replicate columns
# [11] = log [Compound] M = -6.5, individual replicate columns
# [12] = log [Compound] M = -7.0, individual replicate columns
# [13] = log [Compound] M = -7.5, individual replicate columns
# [14] = log [Compound] M = -8.0, individual replicate columns
# [15] = log [Compound] M = -8.5, individual replicate columns
# [16] = log [Compound] M = -9.0, individual replicate columns
# [17] = Supplementary Table 2, mean ± SEM, read-out: pEC50 Ca2+ (converted)
EC50 (GPR139 [1]; [5]),Emax (GPR139 [1]; [6]),EC50 (GPR139 [1]; [17]),SMILES,Ca2+ signal (% of Cmp 1a) (GPR139 [1]; [4]),Ca2+ signal (% of Cmp 1a) (GPR139 [1]; [7]),Ca2+ signal (% of Cmp 1a) (GPR139 [1]; [8]),Ca2+ signal (% of Cmp 1a) (GPR139 [1]; [9]),Ca2+ signal (% of Cmp 1a) (GPR139 [1]; [10]),Ca2+ signal (% of Cmp 1a) (GPR139 [1]; [11]),Ca2+ signal (% of Cmp 1a) (GPR139 [1]; [12]),Ca2+ signal (% of Cmp 1a) (GPR139 [1]; [13]),Ca2+ signal (% of Cmp 1a) (GPR139 [1]; [14]),Ca2+ signal (% of Cmp 1a) (GPR139 [1]; [15]),Ca2+ signal (% of Cmp 1a) (GPR139 [1]; [16]),Ca2+ signal (% of Cmp 1a) (GPR139 [2]),Ca2+ signal (% of Carbachol) [3]
100 nM,109 ± 6%,–,"Cc1cccc(-c2nc(CC(=O)NC(C)c3ccccc3)no2)c1 (stereo not drawn) [Compound 1.3, CC(C1=CC=CC=C1)NC(CC2=NOC(C3=CC(C)=CC=C3)=N2)=O]",106 % of Cmp 1a and 102 % of Cmp 1a and 119 % of Cmp 1a,95 % of Cmp 1a and 109 % of Cmp 1a and 110 % of Cmp 1a and 97 % of Cmp 1a,91 % of Cmp 1a (2×) and 123 % of Cmp 1a and 104 % of Cmp 1a,80 % of Cmp 1a and 126 % of Cmp 1a and 100 % of Cmp 1a and 85 % of Cmp 1a,76 % of Cmp 1a and 101 % of Cmp 1a and 90 % of Cmp 1a and 71 % of Cmp 1a,55 % of Cmp 1a and 89 % of Cmp 1a and 72 % of Cmp 1a and 60 % of Cmp 1a,36 % of Cmp 1a and 68 % of Cmp 1a and 56 % of Cmp 1a and 52 % of Cmp 1a,12 % of Cmp 1a and 48 % of Cmp 1a (2×) and 34 % of Cmp 1a,5.33 % of Cmp 1a and 18 % of Cmp 1a and 26 % of Cmp 1a and 21 % of Cmp 1a,5 % of Cmp 1a and 3.67 % of Cmp 1a and 12 % of Cmp 1a and 9 % of Cmp 1a,-3 % of Cmp 1a and 12 % of Cmp 1a and 5.67 % of Cmp 1a and 8 % of Cmp 1a,13 % of Cmp 1a and 0.333 % of Cmp 1a and -11 % of Cmp 1a,24 % of Carbachol and -2 % of Carbachol and 12 % of Carbachol
–,114 ± 6%,100 nM,"Cc1cc(-c2nc(CC(=O)NC(C)c3ccccc3)no2)cs1 (stereo not drawn) [Compound 1.4, CC(C1=CC=CC=C1)NC(CC2=NOC(C3=CSC(C)=C3)=N2)=O]",100 % of Cmp 1a and 61 % of Cmp 1a and 92 % of Cmp 1a,106 % of Cmp 1a and 107 % of Cmp 1a and 115 % of Cmp 1a and 110 % of Cmp 1a,109 % of Cmp 1a and 91 % of Cmp 1a and 131 % of Cmp 1a and 113 % of Cmp 1a,103 % of Cmp 1a and 82 % of Cmp 1a and 119 % of Cmp 1a and 123 % of Cmp 1a,107 % of Cmp 1a and 79 % of Cmp 1a and 97 % of Cmp 1a and 127 % of Cmp 1a,81 % of Cmp 1a and 66 % of Cmp 1a and 80 % of Cmp 1a and 103 % of Cmp 1a,48 % of Cmp 1a and 47 % of Cmp 1a and 54 % of Cmp 1a and 90 % of Cmp 1a,24 % of Cmp 1a and 22 % of Cmp 1a and 35 % of Cmp 1a and 47 % of Cmp 1a,5.33 % of Cmp 1a and 2.67 % of Cmp 1a and 18 % of Cmp 1a and 26 % of Cmp 1a,2.67 % of Cmp 1a (2×) and 7 % of Cmp 1a (2×),6 % of Cmp 1a and 1.67 % of Cmp 1a and 13 % of Cmp 1a and 4.33 % of Cmp 1a,-0.333 % of Cmp 1a and -4 % of Cmp 1a and -17 % of Cmp 1a,-1 % of Carbachol and 20 % of Carbachol and -5 % of Carbachol
–,112 ± 10%,158 nM,"Cc1ccc(-c2nc(CC(=O)NC(C)c3ccccc3)no2)o1 (stereo not drawn) [Compound 1.6, CC(C1=CC=CC=C1)NC(CC2=NOC(C3=CC=C(O3)C)=N2)=O]",102 % of Cmp 1a and 114 % of Cmp 1a and 83 % of Cmp 1a,98 % of Cmp 1a and 103 % of Cmp 1a and 120 % of Cmp 1a,89 % of Cmp 1a and 114 % of Cmp 1a and 105 % of Cmp 1a,87 % of Cmp 1a and 107 % of Cmp 1a and 97 % of Cmp 1a,70 % of Cmp 1a and 96 % of Cmp 1a and 81 % of Cmp 1a,48 % of Cmp 1a and 70 % of Cmp 1a and 59 % of Cmp 1a,17 % of Cmp 1a and 46 % of Cmp 1a and 43 % of Cmp 1a,-11 % of Cmp 1a and 21 % of Cmp 1a and 0 % of Cmp 1a,-16 % of Cmp 1a and -2 % of Cmp 1a and 1 % of Cmp 1a,-14 % of Cmp 1a and -8 % of Cmp 1a and -4 % of Cmp 1a,-22 % of Cmp 1a and -11 % of Cmp 1a and -20 % of Cmp 1a,-5.33 % of Cmp 1a and -3.67 % of Cmp 1a and -16 % of Cmp 1a,-2 % of Carbachol and -10 % of Carbachol and 10 % of Carbachol
200 nM,107 ± 2%,–,"CC(NC(=O)Cc1noc(-c2cccs2)n1)c1ccccc1 (stereo not drawn) [Compound 1.8, CC(C1=CC=CC=C1)NC(CC2=NOC(C3=CC=CS3)=N2)=O]",85 % of Cmp 1a and 73 % of Cmp 1a and 70 % of Cmp 1a,109 % of Cmp 1a and 116 % of Cmp 1a and 101 % of Cmp 1a,111 % of Cmp 1a and 105 % of Cmp 1a and 96 % of Cmp 1a,93 % of Cmp 1a and 94 % of Cmp 1a and 84 % of Cmp 1a,85 % of Cmp 1a and 82 % of Cmp 1a and 75 % of Cmp 1a,69 % of Cmp 1a and 70 % of Cmp 1a and 47 % of Cmp 1a,38 % of Cmp 1a and 47 % of Cmp 1a and 20 % of Cmp 1a,0.333 % of Cmp 1a and 13 % of Cmp 1a and 7 % of Cmp 1a,-16 % of Cmp 1a and -13 % of Cmp 1a and 1.67 % of Cmp 1a,-16 % of Cmp 1a and 4.67 % of Cmp 1a and -5.33 % of Cmp 1a,-11 % of Cmp 1a and -5.67 % of Cmp 1a and -13 % of Cmp 1a,-5.67 % of Cmp 1a and 1.33 % of Cmp 1a and -13 % of Cmp 1a,5 % of Carbachol and -12 % of Carbachol and 8 % of Carbachol
